Test results: patent US20250257077A1, “BRIDGED BICYCLIC HETEROCYCLOALKYL PYRIDO-[3,4-d]PYRIDAZINE AMINE DERIVATIVES USEFUL AS NLRP3 INHIBITORS” (Ventus Therapeutics U.S., Inc., priority 2022, published 2025)
Values after ≈ are worked out from the molar mass of the structure shown. Like-named read-outs stand apart in the source and are kept apart here.

What was measured:
[1] = Solubility Protocol in Phosphate Buffered Saline (PBS); assay type: physicochemical; conditions: for solubility kinetic at 2 h / solubility at 2 h: phosphate buffered saline (PBS), 18 °C, kinetic from dmso stock; for solubility kinetic at 2 h: aqueous buffer; for solubility kinetic at 2 h / Sol (PBS): PBS pH 7.4, 2 hours at room temperature, kinetic solubility; for solubility at 2 h: pH 7.4, aqueous buffer
Description: (vi) Solubility Protocol in Phosphate Buffered Saline (PBS)
The kinetic solubility of test compounds and control compounds was measured in commercial phosphate buffered saline (PBS), pH 7.4 (Wisent, Canada).
Briefly, a stock solution (20 mM DMSO for controls, and 10 mM DMSO for test compounds) was combined with PBS buffer to reach a targeted concentration of 400 μM for controls and 200 μM for test compounds. The spiked-PBS mixtures were then agitated on a VX-2500 multi-tube vortexer (VWR) for 2 hours at room temperature (18° C.). Following agitation, the samples were filtered on a glass fiber filter (1 μm) and the eluates were diluted 400-fold with a mixture of acetonitrile:water (1:1). Solubility determination was then performed against one standard sample prepared in high organic content at the expected top concentration. The lower limit of quantification was arbitrarily set at 1 μM (400-fold dilution of the top concentration) for assay controls, and 0.5 μM for test compounds. On each experimental run, nicardipine and imipramine were assessed as reference compounds for low and high solubility, respectively. All samples were assessed in triplicate and analyzed by LC-MS/MS (using a CTC PAL autosampler, Thermo Accela UPLC, and a Thermo Quantum mass spectrometer) using electrospray ionization against standards prepared in the same matrix

[2] = Brain Levels (Kp and Kpu,u); assay type: in vivo, CDI mice; conditions: for Kp at 24 h: mice dosed at 20 mpk PO, whole brain AUC over 24 h divided by plasma AUC
Description: (iv) Brain Levels (Kp and Kpu,u)—NLRP3
The in vivo total brain to plasma ratio was assessed in CDI mice after oral administration of the compound. Blood was collected at several timepoints up to 24 h, and transferred into plastic micro centrifuge tubes with EDTA-K2 as anticoagulant. Blood samples were centrifuged at 4000 g for 5 minutes at 4° C., to obtain plasma, then immediately frozen and stored at −75±15° C., prior to analysis. Animals were terminally anaesthetized with a rising concentration of CO2 gas at about 1 minute. At selected timepoints, whole brains were removed from the skull, rinsed in cold PBS to remove blood, dried with clean gauze, then frozen in liquid nitrogen and kept at −75±15° C. before analysis. At the time of analysis, brain samples were homogenized with PBS by tissue weight (g) to PBS volume (mL) ratio 1:3.
Plasma and brain drug levels were quantified by LC/MS/MS on an AB Sciex Triple Quad 5500+instrument, after separation on a HALO 160 A ES-C18, 2.7 μm 2.1×50 mm column. Quantitation was performed using a calibration curve prepared in blank plasma or blank brain homogenate. The software WinNonlin (Phoenix™) was used for pharmacokinetic analysis from the concentrations versus time data, including the AUCinf and AUClast. The Kp ratio (total brain concentration over total plasma concentration) was calculated as (AUCtot,br)/(AUCtot,pl).
The unbound brain exposure was assessed as Kpuu, which is the free brain/free plasma concentration ratio (Cu,bt/Cu,pl). The Cu,br/Cu,pl ratios were obtained from in vivo total brain to plasma ratios (Ctot,br/Ctot,pl) by using in vitro determined Fu,br and Fu,pl.
Plasma protein binding and brain homogenate protein binding were measured by equilibrium dialysis in a HTDialysis plate. The dialysis membranes were soaked in ultrapure water for 60 minutes to separate strips, then in 20% ethanol for 20 minutes, finally in dialysis buffer for 20 minutes. The dialysis set up was assembled according to the manufacturer's instruction. Each cell received 150 μL of plasma or brain homogenate spiked with 1 mM of compound, and dialyzed against an equal volume of dialysis buffer (PBS). The dialysis plate was sealed and incubated in an incubator at 37° C. with 5% CO2 at 100 rpm for 6 hours. At the end of incubation, compound concentration was measured in both chambers by LC-MS/MS on a Triple Quad™ 5500 from AB Inc after separation on a XSelect Hss T3.2.5μ (2.1×30 mm) column. Free fraction (Fu) was calculated as (Peak Area Ratio buffer chamber/Peak Area Ratio plasma chamber). Kpuu=(AUCtot,br×Fu,br)/([…])
The Kpu,u was then calculated upon correcting this kp value with mouse plasma protein binding and mouse brain homogenates binding.
A Kpu,u value >0.3 is considered brain penetrant, and a Kpu,u value ≤0.3 is not considered brain penetrant. When the Kpu,u value is not determined, the Kp value may be useful as a metric of potential brain penetrance if the Kp value is >0.3.

[3] = Human Hepatocyte Stability Assay; assay type: in vitro ADME; conditions: human hepatocytes, 37° C.; read-out: Hep (human) (t½ min)
Description: (§1) (v) Mouse and Human Hepatocyte Stability Assays
(§2) A hepatocyte stability assay is a laboratory-based method used to determine the metabolic stability of a compound in hepatocytes (liver cells). This assay provides valuable information about how quickly a drug is metabolized in the liver and can be used to assess its potential effectiveness and safety in drug discovery.
(§3) In the assay, cither human or mouse hepatocytes are incubated with the test compound at a controlled temperature of 37° C., for different time periods (e.g., 5, 15, 30, 60, and 120 minutes). At each time point during the incubation, samples are taken, the reaction is terminated, and the amount of test compound remaining analyzed using LC-MS/MS to monitor the disappearance of the test compound over time (Gradient). […] See, e.g., Coe et al., Methods in Pharmacology & Toxicology (2008) 151.

[4] = molecular target: T1, human NLRP3 (Homo sapiens, UniProt Q96P20); experiment: Human Whole Blood (hWB) NLRP3 Assay; assay type: cell-based; conditions: LPS priming, ATP activation, IL-1β levels
T1 construct: Human whole blood is drawn from healthy volunteers after obtaining written informed consent; from tissue
T1 sequence (Q96P20 whole entry): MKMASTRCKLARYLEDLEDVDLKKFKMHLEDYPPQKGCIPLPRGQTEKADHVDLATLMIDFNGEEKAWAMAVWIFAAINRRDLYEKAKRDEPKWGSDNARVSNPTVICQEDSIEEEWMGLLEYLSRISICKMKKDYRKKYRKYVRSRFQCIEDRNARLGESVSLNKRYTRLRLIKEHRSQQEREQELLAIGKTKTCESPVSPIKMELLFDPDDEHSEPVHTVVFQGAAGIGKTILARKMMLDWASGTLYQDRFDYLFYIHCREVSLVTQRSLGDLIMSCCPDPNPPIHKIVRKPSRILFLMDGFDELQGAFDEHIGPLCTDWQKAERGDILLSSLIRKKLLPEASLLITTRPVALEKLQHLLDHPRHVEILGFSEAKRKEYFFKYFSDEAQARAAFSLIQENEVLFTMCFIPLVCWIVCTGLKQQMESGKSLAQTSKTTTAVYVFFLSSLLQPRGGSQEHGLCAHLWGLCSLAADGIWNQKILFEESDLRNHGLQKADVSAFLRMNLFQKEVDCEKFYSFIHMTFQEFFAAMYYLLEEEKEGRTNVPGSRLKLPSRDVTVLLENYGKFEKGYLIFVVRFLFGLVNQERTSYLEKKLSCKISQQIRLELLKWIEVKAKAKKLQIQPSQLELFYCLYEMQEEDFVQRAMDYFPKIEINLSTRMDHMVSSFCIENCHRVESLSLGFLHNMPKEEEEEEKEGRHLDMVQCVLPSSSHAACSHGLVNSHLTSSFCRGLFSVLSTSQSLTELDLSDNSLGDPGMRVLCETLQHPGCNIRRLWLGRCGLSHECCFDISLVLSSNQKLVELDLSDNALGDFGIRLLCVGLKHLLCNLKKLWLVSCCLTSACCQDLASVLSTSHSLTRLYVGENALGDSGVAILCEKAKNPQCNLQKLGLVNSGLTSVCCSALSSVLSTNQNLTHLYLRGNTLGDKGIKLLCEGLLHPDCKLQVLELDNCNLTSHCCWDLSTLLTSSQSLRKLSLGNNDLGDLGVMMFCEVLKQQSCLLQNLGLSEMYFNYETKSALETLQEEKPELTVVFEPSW
Description: (ii) Human Whole Blood (hWB) NLRP3 Assay
Human whole blood is drawn from healthy volunteers after obtaining written informed consent. Heparin lithium coated tubes are used to collect blood from volunteers. Blood samples are distributed on 96 well plates using 90 μl per well. Priming is performed by adding 5 μl of LPS (026: B6; Sigma L-2654) at a final concentration of 1 μg/ml for 4.5 hours in a humidified incubator with 37° C. 5% CO2. Thirty minutes prior to NLRP3 activation, 5 μl of a 20× compound solution or vehicle (2% dimethylsulfoxide (DMSO)) is added to each well and plates were incubated on a shaker (450 rpm) in a humidified incubator with 37° C., 5% CO2. Activation is then performed by adding 3.3 μl of a 31× ATP solution per well. At the end of the 30 minutes stimulation, the plates are centrifuged (800 g, 10 min, room temperature) and the plasma from each well is frozen at −80° C. IL-1β levels in the supernatant were analyzed using a mesoscale discovery assay (MSD K151TUK) according to the manufacturers’ instructions.

[5] = Mouse Hepatocyte Stability Assay; assay type: in vitro ADME; conditions: mouse hepatocytes, 37° C.; read-out: Hep (mouse) (t½ min)
Description: as §1, §2, §3

[6] = CDI, mouse, brain (whole brain homogenate) relative to plasma, oral, 20 mpk, brain levels, mice
[7] = CDI, mouse, brain (whole brain homogenate) relative to plasma, po, 20 mg/kg, Kp corrected with mouse plasma protein binding and mouse brain homogenates binding, 20 mpk PO, read-out: Kpu,u
[8] = CDI, mouse, brain (whole brain homogenate) relative to plasma, po, 20 mg/kg
[9] = CDI, mouse, brain (whole brain homogenate) relative to plasma, oral, 20 mpk, brain levels, unbound, mice, read-out: Kpu,u

| Structure (SMILES) | solubility kinetic at 2 h [1] [µM] | solubility at 2 h [1] [µM] | Kp [2, 6] | Kpu,u [2, 7] | Kp at 24 h [2, 8] | Kpu,u ([2]; brain levels, unbound, mice) | half-life [3] [h] | IC50 [4] [µM] | half-life [5] [h] | Sol (PBS) [1] [µM] | Kpu,u [2, 9] |
| --- | --- | --- | --- | --- | --- | --- | --- | --- | --- | --- | --- |
| Oc1cc(Cl)ccc1-c1nnc(N[C@@H]2C[C@@H]3CC[C@H]2O3)c2cnccc12 (single isomer, unassigned) [Compound 3A*] | > 300 | > 300 | 0.3 | 0.15 | 0.3 | 0.15 — | > 4 | 1.16 | 2.17 |  |  |
| Cc1ccc(-c2nnc(N[C@@H]3C[C@H]4CC[C@@H]3O4)c3cnccc23)c(O)c1 (single isomer, unassigned) [Compound 7C] |  |  | 0.61 |  |  |  | 4.67 | 0.11 | 0.35 |  |  |
| Oc1cc(C(F)(F)F)ccc1-c1nnc(N[C@@H]2C[C@@H]3CC[C@H]2O3)c2cnccc12 (single isomer, unassigned) [Compound 10A*] |  | 2.1 (≈ 0.845 µg/mL) | 0.46 | 0.49 | 0.46 | 0.49 | 3.17 | 0.92 | 1.83 | 2.1 |  |
| Oc1cc(C(F)(F)F)ccc1-c1nnc(N[C@@H]2C[C@H]3CC[C@@H]2O3)c2cnccc12 (single isomer, unassigned) [Compound 10C*] |  |  | 0.48 | 0.21 | 0.48 | 0.21 | 7.83 | 0.81 | 2.33 |  |  |
| Cc1ccc(-c2nnc(N[C@H]3C[C@H]4CC[C@@H](C3)O4)c3cnccc23)c(O)c1 [Compound 2A*-r, 2-(4-(((1R,3r,5S)-8-oxabicyclo[3.2.1]octan-3-yl)amino)pyrido[3,4-d]pyridazin-1-yl)-5-methylphenol] |  | 1.9 (≈ 0.689 µg/mL) | 0.27 | 0.16 | 0.27 |  | > 8 | 0.33 | 1.18 | 1.9 | 0.16 |
| Oc1cc(C(F)(F)F)ccc1-c1nnc(N[C@H]2C[C@H]3CC[C@@H](C2)O3)c2cnccc12 [Compound 4A*-r, 2-(4-(((1R,3r,5S)-8-oxabicyclo[3.2.1]octan-3-yl)amino)pyrido[3,4-d]pyridazin-1-yl)-5-(trifluoromethyl)phenol] |  | 2.4 (≈ 0.999 µg/mL) | 0.13 | 0.09 | 0.13 |  | > 8 | 1.1 | 3.33 | 2.4 | 0.09 |
| Oc1cc(Cl)ccc1-c1nnc(N[C@H]2[C@@H]3CC[C@H]2COC3)c2cnccc12 [Compound 5A, 2-(4-(((1R,5S,8s)-3-oxabicyclo[3.2.1]octan-8-yl)amino)pyrido[3,4-d]pyridazin-1-yl)-5-chlorophenol] |  | 25 (≈ 9.57 µg/mL) | 0.87 | 0.44 | 0.87 |  | > 4 | 0.15 | 2.67 | 25 | 0.44 |
| Cc1ccc(-c2nnc(N[C@H]3[C@@H]4CC[C@H]3COC4)c3cnccc23)c(O)c1 [Compound 6A, 2-(4-(((1R,5S,8s)-3-oxabicyclo[3.2.1]octan-8-yl)amino)pyrido[3,4-d]pyridazin-1-yl)-5-methylphenol] | > 300 |  |  | 0.51 | 0.76 |  | > 4 | 0.2 | 2.67 | >300 |  |
| Oc1cc(C(F)F)ccc1-c1nnc(N[C@H]2C[C@H]3CC[C@@H](C2)O3)c2cnccc12 [Compound 11A*-r, 2-(4-(((1R,3r,5S)-8-oxabicyclo[3.2.1]octan-3-yl)amino)pyrido[3,4-d]pyridazin-1-yl)-5-(difluoromethyl)phenol] | 0.7 (≈ 0.279 µg/mL) |  |  | 0.06 | 0.08 |  | > 4 | 0.81 | 3.83 | 0.7 |  |
